ChEMBL document CHEMBL1137844, “Design, synthesis and structure-activity relationship of novel RXR-selective modulators” (Bioorg Med Chem Lett, 2004)

Assays:
[1] = target: T1, Retinoic acid receptor RXR-alpha (Homo sapiens, UniProt P19793); test: Antagonist activity for Retinoic X receptor alpha in CV1 cells; format: functional, cell-based, CV-1
T1 sequence (P19793 whole entry): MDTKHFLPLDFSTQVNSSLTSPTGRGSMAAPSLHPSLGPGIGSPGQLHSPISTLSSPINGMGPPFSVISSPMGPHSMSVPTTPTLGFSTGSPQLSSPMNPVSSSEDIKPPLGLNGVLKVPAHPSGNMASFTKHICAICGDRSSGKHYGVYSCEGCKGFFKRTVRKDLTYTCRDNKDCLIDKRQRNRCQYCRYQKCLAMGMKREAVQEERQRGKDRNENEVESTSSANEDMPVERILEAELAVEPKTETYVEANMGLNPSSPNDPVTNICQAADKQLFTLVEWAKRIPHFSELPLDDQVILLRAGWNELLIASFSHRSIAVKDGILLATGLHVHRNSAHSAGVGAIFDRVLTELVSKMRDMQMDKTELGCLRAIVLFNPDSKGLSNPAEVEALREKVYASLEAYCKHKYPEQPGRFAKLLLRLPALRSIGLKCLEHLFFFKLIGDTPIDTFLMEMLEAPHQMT

[2] = target: T2, Retinoic acid receptor alpha (Homo sapiens, UniProt P10276); test: Binding affinity against retinoic acid receptor alpha by [3H]ATRA displacement.
T2 sequence (P10276 whole entry): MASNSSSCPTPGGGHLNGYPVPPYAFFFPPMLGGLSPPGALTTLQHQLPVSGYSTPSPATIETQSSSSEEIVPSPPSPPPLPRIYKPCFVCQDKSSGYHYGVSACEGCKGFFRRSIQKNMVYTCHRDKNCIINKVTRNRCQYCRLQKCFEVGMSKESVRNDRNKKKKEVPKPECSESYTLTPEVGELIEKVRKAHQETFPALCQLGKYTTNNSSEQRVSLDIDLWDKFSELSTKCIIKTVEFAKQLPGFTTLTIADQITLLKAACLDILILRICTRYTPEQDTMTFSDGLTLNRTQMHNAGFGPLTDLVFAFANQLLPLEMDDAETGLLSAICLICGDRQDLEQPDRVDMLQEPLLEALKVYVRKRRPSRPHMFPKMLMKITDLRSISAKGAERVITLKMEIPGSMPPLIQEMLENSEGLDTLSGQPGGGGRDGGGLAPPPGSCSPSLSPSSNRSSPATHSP

[3] = target: T3, Retinoic acid receptor RXR-beta (Homo sapiens, UniProt P28702); test: Displacement of [3H]9-cis-RA from Retinoic X receptor beta
T3 sequence (P28702 whole entry): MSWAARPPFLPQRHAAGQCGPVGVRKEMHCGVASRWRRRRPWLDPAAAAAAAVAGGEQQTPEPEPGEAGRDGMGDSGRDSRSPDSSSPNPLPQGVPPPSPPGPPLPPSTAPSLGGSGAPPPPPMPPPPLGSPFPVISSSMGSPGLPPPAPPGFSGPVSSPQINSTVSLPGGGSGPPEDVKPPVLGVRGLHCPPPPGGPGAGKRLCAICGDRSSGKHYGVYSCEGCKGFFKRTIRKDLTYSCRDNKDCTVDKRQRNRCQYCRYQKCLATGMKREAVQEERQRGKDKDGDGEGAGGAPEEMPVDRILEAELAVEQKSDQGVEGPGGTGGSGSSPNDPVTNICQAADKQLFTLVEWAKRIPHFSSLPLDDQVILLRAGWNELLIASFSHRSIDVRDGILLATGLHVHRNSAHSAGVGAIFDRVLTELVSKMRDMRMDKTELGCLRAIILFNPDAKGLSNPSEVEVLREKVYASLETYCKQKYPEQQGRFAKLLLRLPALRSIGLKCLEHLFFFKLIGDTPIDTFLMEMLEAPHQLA

[4] = target: T1, Retinoic acid receptor RXR-alpha; test: Binding affinity against Retinoic acid receptor RXR-alpha by [3H]9-cis-RA displacement.
[5] = target: T4, Retinoic acid receptor RXR-gamma (Homo sapiens, UniProt P48443); test: Displacement of [3H]9-cis-RA from retinoic X receptor gamma
T4 sequence (P48443 whole entry): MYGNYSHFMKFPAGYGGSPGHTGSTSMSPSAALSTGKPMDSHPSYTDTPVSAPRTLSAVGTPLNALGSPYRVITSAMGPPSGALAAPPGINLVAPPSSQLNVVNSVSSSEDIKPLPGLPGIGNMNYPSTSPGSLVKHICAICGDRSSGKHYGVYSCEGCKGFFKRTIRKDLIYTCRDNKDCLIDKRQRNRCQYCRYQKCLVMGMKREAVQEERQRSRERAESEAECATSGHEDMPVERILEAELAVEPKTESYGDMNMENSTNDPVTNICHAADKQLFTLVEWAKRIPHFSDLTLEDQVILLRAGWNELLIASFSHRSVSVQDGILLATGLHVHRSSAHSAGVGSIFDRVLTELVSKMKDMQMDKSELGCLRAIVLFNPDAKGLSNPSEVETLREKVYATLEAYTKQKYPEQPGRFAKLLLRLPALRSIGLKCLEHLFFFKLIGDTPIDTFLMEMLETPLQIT

[6] = target: T1, Retinoic acid receptor RXR-alpha; test: Transcriptional activation in CV-1 cells expressing Retinoid X receptor alpha; format: cell-based

| SMILES | IC50 [1] | Ki [2] | Ki [3] | Ki [4] | Ki [5] | EC50 [6] |
| --- | --- | --- | --- | --- | --- | --- |
| C/C(=C\C(=O)O)c1cc2cccc(-c3cc(C(C)C)cc(C(C)C)c3OCC(F)F)c2o1 | 300 nM | > 10000 nM | 261 nM | 161 nM | 500 nM | – |
| Cc1cc2c(cc1C1(c3ccc(C(=O)O)cn3)CC1)C(C)(C)CCC2(C)C | – | – | 7.5 nM | – | – | – |
| CCOc1c(-c2cccc3cc(/C(C)=C/C(=O)O)oc23)cc(C(C)C)cc1C(C)C | – | > 10000 nM | – | – | – | 74 nM |
| CCCCOc1c(-c2cccc3cc(/C(C)=C(\F)C(=O)O)oc23)cc(C(C)C)cc1C(C)C | 11 nM | > 10000 nM | 64.5 nM | 16 nM | 28 nM | – |
| C/C(=C\C(=O)O)c1cc2cccc(-c3cc(C(C)C)cc(C(C)C)c3OCCCF)c2o1 | 194 nM | > 10000 nM | – | 47 nM | – | – |
| C/C(=C\C(=O)O)c1cc2c(-c3cc(C(C)(C)C)cc(C(C)(C)C)c3OCC(F)F)cccc2s1 | 24 nM | 8360 nM | 55 nM | – | 20 nM | – |
| CCCCCCCOc1c(-c2cccc3sc(/C(C)=C/C(=O)O)cc23)cc(C(C)(C)C)cc1C(C)(C)C | 83 nM | > 10000 nM | 12 nM | 5 nM | 28 nM | – |
| C/C(=C\C(=O)O)c1cc2cccc(-c3cc(C(C)C)cc(C(C)C)c3OCC(F)(F)F)c2o1 | 347 nM | – | 142 nM | 198 nM | 334 nM | – |
| C/C(=C\C(=O)O)c1cc2c(-c3cc(C(C)(C)C)cc(C(C)(C)C)c3OCCCF)cccc2s1 | 8 nM | 7280 nM | 10 nM | 3 nM | 21 nM | – |
| C/C(=C\C(=O)O)c1cc2c(-c3cc(C(C)(C)C)cc(C(C)(C)C)c3OCC(F)(F)F)cccc2s1 | 14 nM | > 10000 nM | 10 nM | 3 nM | 20 nM | – |
| C/C(=C(/F)C(=O)O)c1cc2cccc(-c3cc(C(C)C)cc(C(C)C)c3OCC(F)F)c2o1 | 22 nM | > 10000 nM | 4 nM | 101 nM | 49 nM | – |
| CCCOc1c(-c2cccc3cc(/C(C)=C/C(=O)O)oc23)cc(C(C)C)cc1C(C)C | 128 nM | 8500 nM | – | 44 nM | – | – |
| CCCOc1c(-c2cccc3sc(/C(C)=C/C(=O)O)cc23)cc(C(C)C)cc1C(C)C | 16 nM | 6910 nM | 15 nM | – | 20 nM | – |
| CCOc1c(-c2cccc3cc(/C(C)=C/C(=O)O)sc23)cc(C(C)C)cc1C(C)C | – | 6020 nM | – | 271 nM | – | 390 nM |
| CCOc1c(-c2cccc3sc(/C(C)=C/C(=O)O)cc23)cc(C(C)C)cc1C(C)C | – | > 10000 nM | 11 nM | 6 nM | 12 nM | 20 nM |
| C/C(=C/C=C/C(C)=C/C(=O)O)c1cc(C(C)(C)C)cc(C(C)(C)C)c1OCC(F)F | – | > 1000 nM | 18 nM | – | 39 nM | – |
| C/C(=C\C(=O)O)c1cc2c(-c3cc(C(C)(C)C)cc(C(C)(C)C)c3OCCC(F)F)cccc2s1 | 16 nM | > 10000 nM | 12 nM | 7 nM | 37 nM | – |
| C/C(=C\C(=O)O)c1cc2c(-c3cc(C(C)(C)C)cc(C(C)(C)C)c3C)cccc2s1 | – | 1790 nM | 33 nM | 7 nM | 54 nM | 39 nM |
